Key:
primary microglia = experiment: Intracellular Aβ degradation by primary microglia; type: cell-based, murine
Text: FIG. 5 illustrates graphs showing RXR agonists stimulate Aβ degradation.
Given the ability of RXR activation to drive LXR target gene expression, we predicted that agonist treatment should promote the proteolytic degradation of Aβ by microglia. […] Aβ uptake was unaffected by either drug treatment.

microglia = experiment: Inhibition of RXR mediated intracellular Aβ degradation by PPARγ or LXR inhibitors, microglia; type: cell-based; conditions: inhibitor pretreatment 1.5 hrs, Bexarotene 24 hours, 2 ug/mL soluble Aβ 18 hours
Text: (§1) FIG. 14 illustrates graphs showing RXR mediated intracellular Aβ degradation is prevented by inhibiting PPARγ or LXR.
(§2) To determine which heterodimer partners are involved in RXR activation driven Aβ intracellular degradation, we inhibited PPARγ and LXR by competitive inhibitors, TO and 22-s-Hydroxycholesterol, respectively. Aβ degradation mediated by either microglia (A) or astrocytes (B) is inhibited with either inhibitor to PPAR or LXR. Additionally, a co-treatment with both inhibitors reduces Aβ degradation further (FIG. 14).

astrocytes = experiment: Inhibition of RXR mediated intracellular Aβ degradation by PPARγ or LXR inhibitors, astrocytes; type: cell-based; conditions: inhibitor pretreatment 1.5 hrs, Bexarotene 24 hours, 2 ug/mL soluble Aβ 18 hours
Text: as §1, §2

[1] = extended periods in humans; cited from earlier work
ApoE knock out microglia = experiment: Intracellular Aβ degradation in ApoE knock out microglia; type: cell-based, murine; conditions: without ApoE
[2] = test system: ApoE knock out astrocytes; experiment: Intracellular Aβ degradation in ApoE knock out astrocytes; type: cell-based, murine; conditions: without ApoE
[3] = therapeutic doses, FDA alert May 21, 2007; cited from earlier work

SMILES: CC1=C(/C=C/C(C)=C\C=C\C(C)=C\C(=O)O)C(C)(C)CCC1 [9cisRA]
- Aβ uptake (primary microglia): unaffected
- intracellular Aβ levels (primary microglia; drug 24 hours then 18 hours with 2 μg/mL soluble Aβ): dose-dependent reduction

SMILES: CC(C)CC[C@H](O)[C@@H](C)[C@H]1CC[C@H]2[C@@H]3CC=C4C[C@@H](O)CC[C@]4(C)[C@H]3CC[C@]12C [22-s-Hydroxycholesterol]
- Bexarotene driven intracellular Aβ degradation (microglia): inhibited
- Bexarotene driven intracellular Aβ degradation (astrocytes): inhibited

SMILES: C=C(c1ccc(C(=O)O)cc1)c1cc2c(cc1C)C(C)(C)CCC2(C)C [Bexarotene]
- clinical safety profile [1]: good safety profile
- intracellular Aβ degradation (ApoE knock out microglia): no effect
- intracellular Aβ degradation [2]: no effect

SMILES: CN(CCOc1ccc(CC2SC(=O)NC2=O)cc1)c1ccccn1 (stereo not drawn) [rosiglitazone, 5-[4-[2-(N-methyl-N-(2-pyridyl)amino]ethoxy]benzyl]thiazolidine-2,4-dione]
- risk of death from all cardiovascular diseases [3]: even higher risk of death from all cardiovascular diseases
- risk of heart attack [3]: significantly increased risk of heart attack

From patent publication US20140235676A1, “RXR AGONIST COMPOUNDS AND METHODS” (Case Western Reserve University, priority 2011, published 2014)
